Source: US12116357B2, “Heteroaryl-triazole and heteroaryl-tetrazole compounds as pesticides” (Bayer Aktiengesellschaft, priority 2018, dated 2024)

Assays:
Format in all cases: in vivo
[1] = test system: Myzus persicae; assay: Myzus persicae oral test; conditions: 120 h
Description: • Solvent: 100 parts by weight acetone
To produce a suitable preparation of active compound, 1 part by weight of active compound is mixed with the stated amount of solvent, and the concentrate is diluted with water to the desired concentration. 50 μl compound solution is filled in microtiter plates and 150 μl IPL41 insect medium (33%+15% sugar) is added to obtain a total volume of 200 μl per well. Afterwards the plates are sealed with parafilm through which a mixed population of the green peach aphid (Myzus persicae) can suck on the compound preparation.
(§1) After 5 days mortality in % is determined. 100% means all aphids have been killed and 0% means none of the aphids have been killed.

[2] = test system: Nezara viridula; assay: Nezara viridula spray test; conditions: 96 h
Description: (§2) • Solvent: 78.0 parts by weight of acetone • 1.5 parts by weight of dimethylformamide • Emulsifier: alkylarylpolyglycol ether
To produce a suitable preparation of active compound, 1 part by weight of active compound is mixed with the stated amount of solvent, and the concentrate is diluted with water, containing an emulsifier concentration of 1000 ppm, to the desired concentration. Further test concentrations are prepared by dilution with emulsifier containing water.
Barley plants (Hordeum vulgare) infested with larvae of the southern green stink bug (Nezara viridula) are sprayed with a test solution containing the desired concentration of the active ingredient.
After 4 days mortality in % is determined. 100% means all the stink bugs have been killed; 0% means none of the stink bugs have been killed.

[3] = test system: Ctenocephalides felis; assay: Ctenocephalides felis in-vitro contact test, adult cat flea; conditions: 5 μg/cm^2, after 48 hours, read-out: efficacy (fleas dead or moribund)
Description: 9 mg compound is solved in 1 ml acetone and diluted with acetone to the desired concentration. 250 μl of the test solution is filled in 25 ml glass test tubes and homogeneously distributed on the inner walls by rotation and tilting on a shaking device (2 h at 30 rpm). With a compound concentration of 900 ppm, an inner surface of 44.7 cm^2 and a homogeneous distribution, a dose of 5 μg/cm^2 is achieved.
After the solvent has evaporated, each test tube is filled with 5-10 adult cat fleas (Ctenocephalides felis), closed with a perforated lid and incubated in a lying position at room temperature and relative humidity. After 48 hours efficacy is determined. The fleas are patted on the ground of the tubes and are incubated on a heating plate at 45-50° C. for at most 5 minutes. Immotile or uncoordinated moving fleas, which are not able to escape the heat by climbing upwards, are marked as dead or moribund.
An efficacy of 100% means all fleas are dead or moribund; 0% means no fleas are dead or moribund.

[4] = test system: Boophilus microplus; assay: Boophilus microplus injection test; conditions: Rhipicephalus microplus, 168 h, 20 μg/animal, egg deposition after 7 days, read-out: efficacy (infertile eggs)
Description: (§3) • Solvent: dimethyl sulfoxide
To produce a suitable preparation of active compound, 10 mg of active compound are dissolved in 0.5 ml solvent, and the concentrate is diluted with solvent to the desired concentration.
Five adult engorged female ticks (Boophilus microplus) are injected with 1 μl compound solution into the abdomen. The ticks are transferred into replica plates and incubated in a climate chamber.
After 7 days egg deposition of fertile eggs is monitored. Eggs where fertility is not visible are stored in a climate chamber till hatching after about 42 days. An efficacy of 100% means all eggs are infertile; 0% means all eggs are fertile.

[5] = test system: Ctenocephalides felis; assay: Ctenocephalides felis oral test; conditions: 48 h, 100 ppm in cattle blood, after 2 days
Description: as §3
To produce a suitable preparation of active compound, 10 mg of active compound are dissolved in 0.5 ml solvent, and the concentrate is diluted with cattle blood to the desired concentration.
Approximately 20 adult unfed cat fleas (Ctenocephalides felis) are placed in flea chambers. The blood chamber, sealed with parafilm on the bottom, are filled with cattle blood supplied with compound solution and placed on the gauze covered top of the flea chamber, so that the fleas are able to suck the blood. The blood chamber is heated to 37° C. whereas the flea chamber is kept at room temperature.
After 2 days mortality in % is determined. 100% means all the fleas have been killed; 0% means none of the fleas have been killed.

[6] = test system: Aedes aegypti strain MONHEIM; assay: Aedes aegypti test (surface treatment & contact assay); conditions: 24 hours after contact, read-out: efficacy (mortality); for mortality at 20 mg/m2: surface concentration 20 mg/m^2, 30 min exposure
Description: (§4) • Solvent: Aceton+2000 ppm rapeseed oil methyl ester (RME)
In order to produce a sufficient, active ingredient containing solution it is necessary to solve the test compound in the solvent-mix (acetone at 2 mg/ml/RME 2000 ppm). This solution is pipetted onto a glazed tile and after evaporation of the acetone, adult mosquitoes of the species Aedes aegypti strain MONHEIM are placed onto the dried surface. The exposure time is 30 minutes.
(§5) Mortality in percent (%) is determined 24 hours after contact of the insects to the treated surface. 100% mortality means that all tested insects are dead, whereas 0% means that no insect died.

[7] = test system: Anopheles funestus strain FUMOZ-R; assay: Anopheles funestus test (surface treatment & contact assay); conditions: 24 hours after contact, read-out: efficacy (mortality); for mortality at 4 mg/m2: surface concentration 4 mg/m^2, 30 min exposure; for mortality at 20 mg/m2: surface concentration 20 mg/m^2, 30 min exposure
Description: as §4
In order to produce a sufficient, active ingredient containing solution it is necessary to solve the test compound in the solvent-mix (acetone at 2 mg/ml/RME 2000 ppm). This solution is pipetted onto a glazed tile and after evaporation of the acetone, adult mosquitoes of the species Anopheles funestus strain FUMOZ-R (Hunt et al., Med. Vet. Entomol. 2005 September; 19(3): 271-275) are placed onto the dried surface. The exposure time is 30 minutes.
as §5

[8] = test system: Spodoptera frugiperda; assay: Spodoptera frugiperda spray test; conditions: 168 h
Description: (§6) • Solvent: 78.0 parts by weight acetone • 1.5 parts by weight dimethylformamide • Emulsifier: alkylarylpolyglycol ether
(§7) To produce a suitable preparation of active compound, 1 part by weight of active compound is mixed with the stated amount of solvents and is diluted with water, containing an emulsifier concentration of 1000 ppm, to the desired concentration. Further test concentrations are prepared by dilution with emulsifier containing water.
Maize (Zea mays) leaf sections are sprayed with a preparation of the active ingredient of the desired concentration. Once dry, the leaf sections are infested with fall armyworm larvae (Spodoptera frugiperda).
After 7 days mortality in % is determined. 100% means all caterpillars have been killed and 0% means none of the caterpillars have been killed.

[9] = test system: Musca domestica strain WHO-N; assay: Musca domestica test (surface treatment & contact assay); conditions: 24 hours after contact, read-out: efficacy (mortality)
Description: as §4
In order to produce a sufficient, active ingredient containing solution it is necessary to solve the test compound in the solvent-mix (acetone at 2 mg/ml/RME 2000 ppm). This solution is pipetted onto a glazed tile and after evaporation of the acetone, adult flies of the species Musca domestica strain WHO-N are placed onto the dried surface. The exposure time is 30 minutes.
as §5

[10] = test system: Phaedon cochleariae; assay: Phaedon cochleariae spray test; conditions: 168 h, after 7 days
Description: as §2, §7
Chinese cabbage (Brassica pekinensis) leaf disks are sprayed with a preparation of the active ingredient of the desired concentration. Once dry, the leaf disks are infested with mustard beetle larvae (Phaedon cochleariae).
After 7 days mortality in % is determined. 100% means all beetle larvae have been killed and 0% means none of the beetle larvae have been killed.

[11] = test system: Myzus persicae; assay: Myzus persicae spray test; conditions: 120 h
Description: as §6, §7
Chinese cabbage (Brassica pekinensis) leaf disks infected with all instars of the green peach aphid (Myzus persicae), are sprayed with a preparation of the active ingredient of the desired concentration.
as §1

[12] = test system: Nilaparvata lugens; assay: Nilaparvata lugens spray test; conditions: 96 h
Description: as §2, §7
Rice plants (Oryza sativa) are sprayed with a preparation of the active ingredient of the desired concentration and the plants are infested with the brown planthopper (Nilaparvata lugens).
After 4 days mortality in % is determined. 100% means all planthoppers have been killed and 0% means none of the planthoppers have been killed.

[13] = surface concentration 4 mg/m^2, 30 min exposure

Compound | mortality at 4 ppm [1] | mortality at 20 ppm [1] | mortality at 500 g/ha [2] | pest or weed control at 5 µg/cm2 [3] | pest or weed control at 0.02 mg [4] | mortality at 100 ppm [5] | mortality at 4 mg/m2 [6, 13] | mortality at 20 mg/m2 [6] | mortality at 4 mg/m2 [7] | mortality at 20 mg/m2 [7] | mortality at 500 g/ha [8] | mortality at 20 mg/m2 ([9]; surface concentration 20 mg/m^2, 30 min exposure) | mortality at 500 g/ha [10] | mortality at 500 g/ha [11] | mortality at 500 g/ha [12] | mortality at 4 mg/m2 [9, 13]
CC(c1ncnn1-c1ncccn1)N(Cc1ncccn1)C(=O)c1cc(Cl)cc(C(F)(F)F)c1 (centres unmarked) [Example I-010] | 100% | 100% | 100% | 100% | 100% | 100% | 80 to 100% | 90 to 100% | 85 to 100% | 85 to 100% | 100% | 90 to 100% | 100% | – | – | –
CC(c1ncnn1-c1ncccn1)N(CC1CSC1)C(=O)c1cc(Cl)cc(C(F)(F)F)c1 (centres unmarked) [Example I-011] | 100% | 100% | 100% | – | 95% | 100% | – | 90 to 100% | 85 to 100% | 85 to 100% | 100% | – | 100% | 100% | 100% | 90 to 100%
CC(c1ncnn1-c1ncccn1)N(CC1OCCO1)C(=O)c1cc(Cl)cc(C(F)(F)F)c1 (centres unmarked) [Example I-023] | 100% | – | – | 80% | 100% | 100% | – | – | – | 85 to 100% | 100% | – | – | 100% | – | –
CC(c1ncnn1-c1ncccn1)N(C(=O)c1cc(Cl)cc(C(F)(F)F)c1)C1CSC1 (centres unmarked) [Example I-024] | 100% | 100% | 100% | 100% | – | 100% | – | – | – | – | – | – | 100% | – | 100% | –
CC(c1ncnn1-c1ncccn1)N(C(=O)c1cc(Cl)cc(C(F)(F)F)c1)C1CS(=O)(=O)C1 (centres unmarked) [Example I-025] | 100% | 100% | 100% | – | – | 100% | – | 90 to 100% | 85 to 100% | 85 to 100% | – | – | 100% | – | 90% | –
CSCCN(C(=O)c1cc(Cl)cc(S(C)(=O)=O)c1)C(C)c1ncnn1-c1ncccn1 (centres unmarked) [Example I-032] | 100% | – | 100% | 100% | – | – | – | – | – | – | – | – | – | 90% | 100% | –
CSCCN(C(=O)c1cc(Cl)cc(Cl)c1)C(C)c1ncnn1-c1ccc(C#N)cn1 (centres unmarked) [Example I-036] | 100% | – | 90% | 100% | – | – | – | – | – | – | 100% | – | – | 90% | – | –
CSCCN(C(=O)c1cc(Cl)cc(S(F)(F)(F)(F)F)c1)C(C)c1ncnn1-c1ccc(C#N)cn1 (centres unmarked) [Example I-039] | – | – | 100% | 100% | – | – | – | – | – | – | 100% | – | – | 100% | – | –
CSCCN(C(=O)c1cc(F)cc(C2CC2)c1)C(C)c1ncnn1-c1ccc(C#N)cn1 (centres unmarked) [Example I-040] | – | – | – | 100% | – | – | – | – | – | – | – | – | – | 100% | – | –
CC(c1ncnn1-c1ncccn1)N(CCNS(C)(=O)=O)C(=O)c1cc(Cl)cc(C(F)(F)F)c1 (centres unmarked) [Example I-041] | 100% | – | – | – | – | – | – | – | – | – | 100% | – | – | 90% | – | –
CCOC(=O)NCCN(C(=O)c1cc(Cl)cc(C(F)(F)F)c1)C(C)c1ncnn1-c1ncccn1 (centres unmarked) [Example I-042] | 100% | – | 100% | – | – | – | – | – | – | – | 100% | – | – | 100% | 100% | –
CC(=O)NCCN(C(=O)c1cc(Cl)cc(C(F)(F)F)c1)C(C)c1ncnn1-c1ncccn1 (centres unmarked) [Example I-043] | 100% | – | 100% | – | – | – | – | – | – | – | 100% | – | – | 100% | – | –
